Biological target: Sodium-dependent dopamine transporter (Rattus norvegicus, UniProt P23977)
Experiment: In vitro binding affinity towards dopamine transporter in rat striatal homogenate with [125I]IPT as the radioligand

Sodium-dependent dopamine transporter, sequence (P23977 whole entry): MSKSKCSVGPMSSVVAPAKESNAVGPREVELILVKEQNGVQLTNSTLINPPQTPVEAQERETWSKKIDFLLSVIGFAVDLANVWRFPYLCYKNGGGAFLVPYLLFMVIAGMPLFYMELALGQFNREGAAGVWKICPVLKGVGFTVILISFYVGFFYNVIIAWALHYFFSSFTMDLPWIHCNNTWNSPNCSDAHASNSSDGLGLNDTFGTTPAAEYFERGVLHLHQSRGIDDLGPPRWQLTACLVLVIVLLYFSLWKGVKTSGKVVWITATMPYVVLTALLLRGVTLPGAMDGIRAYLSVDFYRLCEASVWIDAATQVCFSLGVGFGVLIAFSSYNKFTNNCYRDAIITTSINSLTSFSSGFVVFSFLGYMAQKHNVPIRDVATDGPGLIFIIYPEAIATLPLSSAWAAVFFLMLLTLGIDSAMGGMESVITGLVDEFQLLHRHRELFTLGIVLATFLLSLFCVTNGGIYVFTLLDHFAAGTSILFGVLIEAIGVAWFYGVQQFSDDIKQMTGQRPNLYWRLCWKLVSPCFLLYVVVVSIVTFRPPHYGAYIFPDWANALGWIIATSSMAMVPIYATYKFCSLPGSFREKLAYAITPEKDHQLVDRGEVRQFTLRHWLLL

SMILES | Ki [nM]
CN1C2CCC1[C@H](c1ccc(Cl)cc1)[C@@H]2CN1CC[S][Re]2(=[O])[S]CC[N]2CC1 (stereo partly drawn) [2-[[2-[[[3-(4-chlorophenyl)-8-methyl-8-azabicyclo[3.2.1]oct-2-yl]methyl](2-mercaptoethyl)amino]ethyl]amino]ethanethiolato(3-)-oxo-[1R-(exo-exo)]-;2-{Oxo[N(S),N-bis(2-mercaptoethyl)ethylenediaminato]rhenium(V)methyl}-3-(4-chlorophenyl)tropane] | 8.42
CN1C2CCC1[C@H](c1ccc(Cl)cc1)[C@H]2CN1CC[S][Re]2(=[O])[S]CC[N]2CC1 (stereo partly drawn) [2-[[2-[[[3-(4-chlorophenyl)-8-methyl-8-azabicyclo[3.2.1]oct-2-yl]methyl](2-mercaptoethyl)amino]ethyl]amino]ethanethiolato(3-)-oxo-[1R-(exo-exo)]-;2-{Oxo[N(R),N-bis(2-mercaptoethyl)ethylenediaminato]rhenium(V)methyl}-3-(4-chlorophenyl)tropane] | 13.9

Reference: BindingDB's records for doi:10.1021/jm970742b (University of Pennsylvania, 1998)
